Patent US7863446B2, “Heterocycles” (Orchid Research Laboratories Limited, priority 2006, dated 2011)

What was measured:
PDE4 = PDE4 activity; format: biochemical; conditions: source Human U937 cells
Method: PDE4 Activity PDE4 inhibition was measured by following a literature assay procedure (Cortizo J et al., Br J Pharmacol., 1993, 108: 562-568. The assay method involves the following conditions. • Source: Human U937 cells • Substrate: 1.01 μM [^3H] camp+camp • Vehicle: 1% DMSO • Pre-Incubation Time/Temperature: 15 minutes at 25° C. • Incubation Time/Temperature. 20 minutes at 25° C. • Incubation buffer: 50 mM Tris-HCl, pH 7.5, 5 mM MgCl2 • Quantitation method: Quantitation of [^3H] Adenosine • Significance criteria: >50% of max stimulation or inhibition The results are tabulated as shown in the table XIII.

COX-2 = biological target: T1, COX-2 (Homo sapiens, UniProt P35354); test: Human whole blood assay (PGE-2 inhibition, COX-2); format: cell-based; conditions: LPS stimulated human whole blood, NA = No activity, read-out: % PGE-2 Inhibition in hWBA
T1 construct: Fresh blood was collected in tubes containing sodium heparin by vein puncture from healthy male volunteers; endogenous in cells; host or cells: human whole blood from healthy male volunteers, stimulated with LPS
T1 sequence (P35354 18-604): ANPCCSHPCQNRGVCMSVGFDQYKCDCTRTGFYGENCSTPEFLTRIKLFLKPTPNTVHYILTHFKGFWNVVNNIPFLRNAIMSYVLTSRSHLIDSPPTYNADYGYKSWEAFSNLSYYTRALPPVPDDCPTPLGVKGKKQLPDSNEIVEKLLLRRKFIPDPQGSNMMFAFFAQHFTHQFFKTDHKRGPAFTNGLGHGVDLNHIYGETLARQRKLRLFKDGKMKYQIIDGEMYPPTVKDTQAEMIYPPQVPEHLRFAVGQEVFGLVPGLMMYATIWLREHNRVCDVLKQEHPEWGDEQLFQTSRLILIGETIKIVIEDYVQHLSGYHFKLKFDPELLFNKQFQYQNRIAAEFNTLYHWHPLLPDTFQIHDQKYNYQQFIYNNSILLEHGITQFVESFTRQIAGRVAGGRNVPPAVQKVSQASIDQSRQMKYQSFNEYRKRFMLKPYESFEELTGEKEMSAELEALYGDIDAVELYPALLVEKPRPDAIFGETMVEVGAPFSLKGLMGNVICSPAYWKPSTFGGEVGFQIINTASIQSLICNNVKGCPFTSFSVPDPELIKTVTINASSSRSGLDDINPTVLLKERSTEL
Method: In Vitro Evaluation of Cyclooxygenase-2 (Cox-2) Inhibition Activity
The COX-2 inhibition activities of the compounds illustrated in the examples were determined by the following method.
Human whole blood provides a protein and cell rich milieu appropriate for the study of the biochemical efficacy of anti-inflammatory compounds such as selective COX-2 inhibitors. […] This correlates with the observation that COX-2 inhibitors have no effect on prostaglandin E2 (PGE2) production in normal blood. These inhibitors were active only after incubation of human blood with lipopolysaccharide (LPS), which induces COX-2 production in the blood.
Fresh blood was collected in tubes containing sodium heparin by vein puncture from healthy male volunteers. The subjects should have no apparent inflammatory conditions and should have not taken NSAIDs for at least 7 days prior to blood collection. Blood was preincubated with aspirin in vitro (12 μg/ml, at time zero) to inactivate COX-1 for 6 hours. Then test compounds (at various concentrations) or vehicle were added to blood, the blood was stimulated with LPS B:4 (10 μg/ml) and incubated for another 18 hours at 37° C. water bath. After which the blood was centrifuged, plasma was separated and stored at −80° C. (J. Pharmacol. Exp. Ther, 271, 1705, 1994; Proc. Natl. Acad. Sci. USA, 96, 7563, 1999). The plasma was assayed for PGE2 using Cayman ELISA kit as per the procedure outlined by the manufacturer (Cayman Chemicals, Ann Arbor, USA).

[1] = biological target: purified recombinant COX-1 (Homo sapiens, UniProt P23219); test: COX-1 enzyme based assay; format: biochemical; conditions: NA = No activity, read-out: % Inhibition in rEnzyme Assay COX-1
Method: (§1) COX-1 and COX-2 Enzyme Based Assay
(§2) COX-1 and COX-2 enzyme based assays were carried out to check the inhibitory potential of the test compounds on the production of prostaglandin by purified recombinant COX-1/COX-2 enzyme (Proc. Nat. Acad. Sci. USA, 88, 2692-2696, 1991; J. Clin. Immunoassay 15, 116-120, 1992) In this assay, the potential of the test compound to inhibit the production of prostaglandin either by COX-1 or COX-2 from arachidonic acid (substrate) was measured. This was an enzyme based in-vitro assay to evaluate selective COX inhibition with good reproducibility.
(§3) Arachidonic acid was converted to PGH2 (Intermediate product) by COX1/COX-2 in the presence or absence of the test compound. The reaction was carried out at 37° C. and after 2 minutes it was stopped by adding 1M HCl. Intermediate product PGH2 was converted to a stable prostanoid product PGF2αby SnCl2 reduction. The amount of PGF2α, produced in the reaction was inversely proportional to the COX inhibitory potential of the test compound. The prostanoid product was quantified via enzyme immunoassay (EIA) using a broadly specific antibody that binds to all the major forms of prostaglandin, using Cayman ELISA kit as per the procedure outlined by the manufacturer (Cayman Chemicals, Ann Arbor, USA).

[2] = biological target: T2, purified recombinant COX-2 (Homo sapiens, UniProt P35354); test: COX-2 enzyme based assay; format: biochemical; conditions: NA = No activity, read-out: % Inhibition in rEnzyme Assay COX-2
T2 sequence (P35354 18-604): T1 sequence (P35354 18-604)
Method: as §1, §2, §3

TNF-α [3] = test: LPS induced sepsis for measurement of TNF-α inhibition in mice; format: in vivo; conditions: 50 mg/kg, oral, mice, serum 90 minutes after LPS
Method: LPS Induced Sepsis for Measurement of TNF-α Inhibition in Mice
The LPS induced sepsis model in mice was performed as described by Les sekut et al (J Lab Clin Med 1994; 124:813-20). Female Swiss albino mice were selected and the body weights were equivalent within each group. The mice were fasted for 20 hours with free access to water. The mice were dosed orally with the test compound suspended in vehicle containing 0.5% Tween 80 in 0.25% Carboxy-methylcellulose sodium salt. The control mice were administered the vehicle alone. After 30 minutes of oral dosing, mice were injected with 500 μg of Lipopolysaccharide (Escherichia coli, LPS: B4 from Siga) in phosphate buffer saline solution into the intraperitoneal cavity of the mice. After 90 minutes of LPS administration mice were bled via retro-orbital sinus puncture. Blood samples were stored overnight at 4° C. Serum samples were collected by centrifuging the samples at 4000 rpm for 15 minutes at 4° C. Immediately the serum samples were analysed for TNF-α levels using commercially available mouse TNF-α ELISA kit (Amersham Biosciences) and assay was performed by the manufacturer instruction.
ED50 Measurement of TNF alpha Inhibition in Mice Sepsis Model

TNF-α [4] = test: In vitro measurement of TNF-α in human PBMC (LPS stimulated); format: cell-based; conditions: for inhibition at 1 µM: NA = No activity, read-out: TNF-α Inhibition (%) at Conc. (1 μM); for inhibition at 10 µM: read-out: TNF-α Inhibition (%) at Conc. (10 μM)
Method: In Vitro Measurement of Tumor Necrosis Factor Alpha (TNF-α)
This assay determines the effect of test compounds on the production of TNF α in human Peripheral Blood Mononuclear Cells (PBMC). Compounds were tested for their ability to inhibit the activity of TNF α in human PBMC. PBMC were isolated from blood (of healthy volunteers) using BD Vacutainer CPT™ (Cell preparation tube, BD Bio Science) and suspended in RPMI medium (Physiol. Res. 52: 593-598, 2003). The test compounds were pre-incubated with PBMC (0.5 million/incubation well) for 15 minutes at 37° C. and then stimulated with Lipopolysaccharide (Escherichia coli: B4; 1 μg/ml) for 18 hours at 37° C. in 5% CO2. The levels of TNF-α in the cell culture medium were estimated using enzyme-linked immunosorbent assay performed in a 96 well format as per the procedure of the manufacturer (Cayman Chemical, Ann Arbor, USA).

IL-6 = test: In vitro measurement of IL-6 in human PBMC (LPS stimulated); format: cell-based
Method: In Vitro Measurement of Interleukin-6(IL-6)
This assay determins the effect of test compounds on the production of IL-6 in human PBMC (Physiol. Res. 52: 593-598, 2003). Compounds were tested for their ability to inhibit the activity of IL-6 in human PBMC. PBMC were isolated from blood using BD Vacutainer CPT™ Cell preparation tube (BD Bio Science) and suspended in RPMI medium. The test compounds were pre-incubated with PBMC (0.5 million/incubation well) for 15 minutes at 37° C. and then stimulated with Lipopolysaccharide (Escherichia coli: B4; 1 μg/ml) for 18 hours at 37° C. in 5% CO2. The levels of IL-6 in cell culture medium were estimated using enzyme-linked immunosorbent assay performed in a 96 well format as per the procedure of the manufacturer (Cayman Chemical, Ann Arbor, USA).

Sequence of purified recombinant COX-1 (P23219 24-599): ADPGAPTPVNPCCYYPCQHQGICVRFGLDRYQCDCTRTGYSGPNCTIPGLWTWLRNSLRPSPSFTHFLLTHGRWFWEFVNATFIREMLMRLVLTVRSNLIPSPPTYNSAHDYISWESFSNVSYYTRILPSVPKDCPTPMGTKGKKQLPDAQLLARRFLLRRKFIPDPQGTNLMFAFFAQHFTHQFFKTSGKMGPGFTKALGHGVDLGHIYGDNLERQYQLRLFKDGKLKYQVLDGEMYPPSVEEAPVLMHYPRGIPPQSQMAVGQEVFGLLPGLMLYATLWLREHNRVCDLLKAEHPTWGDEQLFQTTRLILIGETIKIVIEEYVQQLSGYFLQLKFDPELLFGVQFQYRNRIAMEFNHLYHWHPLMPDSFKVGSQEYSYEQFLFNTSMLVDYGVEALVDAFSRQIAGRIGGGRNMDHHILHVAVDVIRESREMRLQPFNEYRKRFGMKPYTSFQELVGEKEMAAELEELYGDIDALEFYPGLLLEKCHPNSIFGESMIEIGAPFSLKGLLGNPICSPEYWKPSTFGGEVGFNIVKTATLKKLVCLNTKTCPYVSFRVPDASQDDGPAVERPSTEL

SMILES | PDE4 inhibition at 10 μM (%) (PDE4) | inhibition at 10 µM [1] | inhibition at 10 µM [2] | TNF-α Inhibition (%) at 50 mg/kg (TNF-α [3]) | also measured
NS(=O)(=O)c1cccc(-c2c(-c3ccccc3)nc(C(F)(F)F)nc2N2CCC(=O)CC2)c1 [Example 178, 3-[6-Phenyl-4-(4-oxopiperidin-1-yl)-2-(trifluoromethyl)pyrimidin-5-yl]benzenesulfonamide] | 84% | – | – | – | –
Fc1ccc(-c2nc(C(F)(F)F)nc(NC3CC3)c2-c2ccccc2)cc1 [Example 174, N-Cyclopropyl-6-(4-fluorophenyl)-5-phenyl-2-(trifluoromethyl)pyrimidin-4-amine] | 88% | – | – | – | –
CS(=O)(=O)c1ccc(-c2nc(C(F)(F)F)nc(NN)c2-c2ccc(S(=O)(=O)NN)cc2)cc1 [Example 7, 4-{4-Hydrazino-6-[4-(methylsulfonyl)phenyl]-2-(trifluoromethyl)pyrimidin-5-yl}benzenesulfonohydrazide] | – | – | – | – | inhibition at 0.25 µM (COX-2; 0.25 μM): 26.2%; inhibition at 1 µM (COX-2; 1 μM): 1.9%; melting point: 203 to 206 °C
NS(=O)(=O)c1cccc(-c2nc(C(F)(F)F)nc(-n3ccnc3)c2-c2ccccc2)c1 [Example 166, 3-[4-(1H-imidazol-1-yl)-5-phenyl-2-(trifluoromethyl)pyrimidin-6-yl]benzenesulfonamide] | 82% | – | – | – | –
NS(=O)(=O)c1cccc(-c2c(-c3ccc(F)cc3)nc(C(F)(F)F)nc2N2CCN(c3ccccn3)CC2)c1 [Example 53, 3-[4-(4-Fluorophenyl)-6-(4-pyridin-2-ylpiperazin-1-yl)-2-(trifluoromethyl)pyrimidin-5-yl]benzenesulfonamide] | – | 56.9% | 26.7% | 70.93% | inhibition at 1 µM [1]: 46.3%; inhibition at 1 µM [2]: 20%
NS(=O)(=O)c1cccc(-c2c(-c3ccc(F)cc3)nc(C(F)(F)F)nc2N2CCN(S(=O)(=O)C(F)(F)F)CC2)c1 [Example 77, 5-(3-Aminosulfonylphenyl)-4-(4-fluorophenyl)-2-(trifluoromethyl)-6-{4-[(trifluoromethyl)sulfonyl]piperazin-1-yl}pyrimidine] | 94% | – | – | – | –
NS(=O)(=O)c1cccc(-c2c(-c3ccccc3)nc(C(F)(F)F)nc2N2CCN(c3ccc(C(F)(F)F)cn3)CC2)c1 [Example 115] | – | 19.2% | 7.03% | 54.23% | inhibition at 1 µM [1]: 6.29%; inhibition at 1 µM (TNF-α [4]): 37.8%; inhibition at 10 µM (TNF-α [4]): 58.3%
NS(=O)(=O)c1cccc(-c2c(-c3ccc(F)cc3)nc(C(F)(F)F)nc2N2CCN(c3ncccn3)CC2)c1 [Example 54, 3-[4-(4-Fluorophenyl)-6-(4-pyrimidin-2-ylpiperazin-1-yl)-2-(trifluoromethyl)pyrimidin-5-yl]benzenesulfonamide] | – | 45.5% | 13.7% | 63.44% | inhibition at 1 µM [1]: 34.4%
CS(=O)(=O)c1ccc(-c2nc(C(F)(F)F)nc(OS(=O)(=O)c3cccc4ccccc34)c2-c2ccccc2)cc1 [Example 18, 6-[4-(Methylsulfonyl)phenyl]-5-phenyl-2-(trifluoromethyl)pyrimidin-4-ylnapthalenesulfonate] | – | – | – | – | inhibition at 1 µM (IL-6; 1 μM, read-out: IL-6 Inhibition (%) Conc. (1 μM)): 32.8%; inhibition at 10 µM (IL-6; 10 μM, read-out: IL-6 Inhibition (%) Conc. (10 μM)): 41%; melting point: 204 to 206 °C
NS(=O)(=O)c1cccc(-c2c(-c3ccccc3)nc(C(F)(F)F)nc2N2CCN(c3ncccn3)CC2)c1 [Example 57] | – | 5.7% | 0.66% | 52.02% | inhibition at 1 µM [2]: 8.29%; inhibition at 1 µM (TNF-α [4]): 84.5%; inhibition at 10 µM (TNF-α [4]): 88.9%
NS(=O)(=O)c1ccc(-c2c(-c3ccc(F)cc3)nc(C(F)(F)F)nc2N2CCNCC2)cc1 [Example 30, 4-[4-(4-Fluorophenyl)-6-piperazin-1-yl-2-(trifluoromethyl)pyrimidin-5-yl]benzenesulfonamide] | – | – | – | 84.84% | inhibition at 1 µM (TNF-α [4]): 43.2%; inhibition at 10 µM (TNF-α [4]): 100%
